Results: PubChem BioAssay (NCI)
Where “and” joins values, the source holds several entries; their conditions need not be identical. Identical values can stand only once.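 How tested: cells in 96-well plates exposed to compound for 48 hours at five concentrations. Here, GI50 denotes the concentration required for 50% inhibition of growth. TGI: total growth inhibition.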

How the values were obtained:
Test in all cases: growth of human tumour cells (NCI), 48 h
[1] = system: CCRF-CEM leukemia
[2] = system: COLO 205 colon
[3] = system: HCT-15 colon
[4] = system: IGROV1 ovarian
[5] = system: K-562 leukemia
[6] = system: NCI-H23 lung
[7] = system: NCI-H522 lung
[8] = system: SF-295 CNS
[9] = system: SF-539 CNS
[10] = system: UO-31 renal

Compound	TGI [1]	TGI [2]	TGI [3]	TGI [4]	TGI [5]	TGI [6]	TGI [7]	TGI [8]	TGI [9]	TGI [10]	GI50 [1] [µM]	GI50 [2] [µM]	GI50 [3] [µM]	GI50 [4] [µM]	GI50 [5] [µM]	GI50 [6]	GI50 [7] [µM]	GI50 [8] [µM]	GI50 [9]	GI50 [10]
NC(=O)CC(N)c1nn[nH]n1 (stereo not given)	> 100 µM	> 100 µM	> 100 µM	> 100 µM	> 100 µM	> 100 µM	> 100 µM	> 100 µM	> 100 µM	> 100 µM										
O=c1[nH]c2ccccc2n1C1CCN(CCCC(c2ccc(F)cc2)c2ccc(F)cc2)CC1	6.76 µM and 30.3 µM	2.58 µM and 3.31 µM	3.95 µM and 19.7 µM	3.86 µM and 32.4 µM	4.54 µM and 17.4 µM	3.18 µM and 24.3 µM	3.36 µM and 10.4 µM	3.02 µM and 14.5 µM	3.58 µM and 9.28 µM	2.44 µM and 18.1 µM	2.3	1.31	1.77	1.96	1.88	1.51 µM and 9.1 µM	1.73	1.5	1.88 µM and 3.35 µM	1.11 µM and 3.56 µM
C[C@@H](NC(=O)c1ccc(F)cc1)c1ccc2c(c1)CCN2C(=O)C1CCOCC1	> 100 µM	> 100 µM	> 100 µM	> 100 µM	> 100 µM	> 100 µM	> 100 µM	> 100 µM	> 100 µM	> 100 µM	> 100	> 100	> 100	> 100	> 100	> 100 µM	> 100	> 100	> 100 µM	> 100 µM
O=[N+]([O-])c1cc(Cc2cc([N+](=O)[O-])c3cccnc3c2O)c(O)c2ncccc12	6.39 µM	56 µM	66.4 µM	17.2 µM	> 100 µM	> 100 µM	38 µM	37.2 µM	> 96 µM	21.8 µM										
COc1ccc2c(c1)C(=O)c1c-2c(=O)n(CCCN(C)C)c2cc(OC)c(OC)cc12	12.2 µM	25.3 µM	27.4 µM	21.8 µM	24 µM	24.5 µM	21.6 µM	0.774 µM	14.9 µM	16.1 µM	0.05	12.6	12.6	10.1	4.75	6.48 µM	4.69	0.158	3.61 µM	3.4 µM
Cc1ccc(-n2c(-c3cc4c([nH]c5ccccc54)c(-c4cccc(O)c4)n3)n[nH]c2=S)cc1	11.6 µM	8.14 µM	6.94 µM	4.74 µM	> 100 µM	9.84 µM	5.27 µM	3.12 µM	1.06 µM	15 µM	0.682	2.46	0.61	0.704	0.523	1.67 µM	0.861	1.11	0.306 µM	2.56 µM
CC1CCN(CCOc2ccc(CNc3ccc4nc(CCC5CCCCC5)[nH]c4c3)cc2)CC1	6.41 µM	3.08 µM	3.03 µM	3.27 µM	2.44 µM	3.98 µM	3.58 µM	3.46 µM	3.01 µM	2.67 µM	1.72	1.57	1.43	1.59	0.594	1.89 µM	1.82	1.87	1.56 µM	1.38 µM
C=C1C(=O)O[C@H]2[C@H]1CC/C(COC(=O)NCc1c[nH]c3ccc(F)cc13)=C\CC[C@@]1(C)O[C@@H]21	1.2 µM	2.95 µM	2.55 µM	3.34 µM	1.86 µM	3.89 µM	2.4 µM	16.6 µM	3.36 µM	2.87 µM	0.302	1.39	1.04	1.54	0.291	1.83 µM	0.835	4.29	1.63 µM	1.52 µM
CC(=O)OCC(CC[CH2][Sn]([Cl])([Cl])[c]1ccccc1)OC(C)=O (stereo not given)	68.6 µM	31.2 µM	32.1 µM	68.8 µM	71.8 µM	39.4 µM	55.6 µM	60 µM	42.5 µM	33 µM	21.3	17.3	17.4	25.5	24.9	19.5 µM	41.1	24.5	22 µM	17.2 µM
COc1cc(-c2ncn(/C=C\c3nnco3)n2)cc(C(F)(F)F)c1	> 100 µM	> 24.7 µM	> 100 µM	> 100 µM	> 100 µM	> 64.8 µM	1.61 µM	> 100 µM	0.581 µM	> 100 µM	0.194	0.0675	0.282	1.89	0.122	0.132 µM	0.0671	0.08	0.0295 µM	0.247 µM
